Tests used:
Type in all cases: in vivo
[1] = system: barnyardgrass (Echinochloa crus-galli); experiment: Test C greenhouse herbicide test, pre- and postemergence
In short: (§1)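 Each species was treated both before emergence, in a loam–sand soil mix, and after emergence, as 1- to 4-leaf seedlings in peat-based potting medium. Plants stayed in the greenhouse 13 to 15 d, then were scored from 0 (no effect) to 100 (complete control) relative to controls.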

[2] = system: blackgrass (Alopecurus myosuroides); experiment: as above
In short: as §1

corn (Zea mays) = experiment: as above
In short: as §1

[3] = system: crabgrass, large (large crabgrass, Digitaria sanguinalis); experiment: as above
In short: as §1

[4] = system: foxtail, giant (giant foxtail, Setaria faberii); experiment: as above
In short: as §1

[5] = system: johnsongrass (Sorghum halepense); experiment: as above
In short: as §1

[6] = system: lambsquarters (Chenopodium album); experiment: as above
In short: as §1

[7] = system: morningglory (Ipomoea coccinea); experiment: as above
In short: as §1

[8] = system: pigweed (Amaranthus retroflexus); experiment: as above
In short: as §1

[9] = system: ragweed (common ragweed, Ambrosia elatior); experiment: as above
In short: as §1

[10] = system: ryegrass, Italian (Italian ryegrass, Lolium multiflorum); experiment: as above
In short: as §1

soybean (Glycine max) = experiment: as above
In short: as §1

[11] = system: waterhemp (common waterhemp, Amaranthus rudis); experiment: as above
In short: as §1

[12] = system: wheat (winter wheat, Triticum aestivum); experiment: as above
In short: as §1

kochia (Kochia scoparia) = experiment: Test C greenhouse herbicide test, postemergence
In short: (§2)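 Visual injury scores (0–100, where 100 means complete control) were assigned 13 to 15 d after postemergence application, by comparison with untreated plants. Treated seedlings stood 2 to 18 cm tall, at the 1- to 4-leaf stage.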

[13] = system: oat, wild (wild oat, Avena fatua); experiment: Test C greenhouse herbicide test, postemergence
In short: as §2

[14] = Postemergence, 31 g ai/ha, scale 0 to 100 (0 no effect, 100 complete control)
[15] = Postemergence, 62 g ai/ha, 0 to 100 scale (0 no effect, 100 complete control)
[16] = Postemergence, 250 g ai/ha, scale 0 to 100, 0 is no effect, 100 is complete control
[17] = postemergence, 125 g ai/ha, scale 0 to 100, 0 no effect, 100 complete control

Cc1ccc2ccccc2c1-c1c(OC(=O)N2CCOCC2)c(Br)nn(C)c1=O [Compound 176]
Plant response rating, Barnyardgrass [1, 14]: 5
Barnyardgrass plant response rating [1, 15]: 5
Plant response rating, Barnyardgrass [1, 16]: 20
Barnyardgrass plant response rating [1, 17]: 10
Plant response rating, Blackgrass [2, 14]: 0
Blackgrass plant response rating [2, 15]: 0
Plant response rating, Blackgrass [2, 16]: 0
Blackgrass plant response rating [2, 17]: 0
Plant response rating, Corn (corn (Zea mays); [14]): 0
Corn plant response rating (corn (Zea mays); [15]): 10
Plant response rating, Corn (corn (Zea mays); [16]): 5
Corn plant response rating (corn (Zea mays); [17]): 0
Plant response rating, Crabgrass, Large [3, 14]: 10
Crabgrass, Large plant response rating [3, 15]: 5
Plant response rating, Crabgrass, Large [3, 16]: 30
Crabgrass, Large plant response rating [3, 17]: 20
Plant response rating, Foxtail, Giant [4, 14]: 5
Foxtail, Giant plant response rating [4, 15]: 15
Plant response rating, Foxtail, Giant [4, 16]: 40
Foxtail, Giant plant response rating [4, 17]: 35
Plant response rating, Johnsongrass [5, 14]: 5
Johnsongrass plant response rating [5, 15]: 5
Plant response rating, Johnsongrass [5, 16]: 10
Johnsongrass plant response rating [5, 17]: 5
Plant response rating, Lambsquarters [6, 14]: 60
Lambsquarters plant response rating [6, 15]: 80
Plant response rating, Lambsquarters [6, 16]: 90
Lambsquarters plant response rating [6, 17]: 80
Plant response rating, Morningglory [7, 14]: 85
Morningglory plant response rating [7, 15]: 85
Plant response rating, Morningglory [7, 16]: 100
Morningglory plant response rating [7, 17]: 98
Plant response rating, Pigweed [8, 14]: 20
Pigweed plant response rating [8, 15]: 30
Plant response rating, Pigweed [8, 16]: 75
Pigweed plant response rating [8, 17]: 50
Plant response rating, Ragweed [9, 14]: 0
Ragweed plant response rating [9, 15]: 0
Plant response rating, Ragweed [9, 16]: 0
Ragweed plant response rating [9, 17]: 0
Plant response rating, Ryegrass, Italian [10, 14]: 0
Ryegrass, Italian plant response rating [10, 15]: 0
Plant response rating, Ryegrass, Italian [10, 16]: 10
Ryegrass, Italian plant response rating [10, 17]: 0
Plant response rating, Soybean (soybean (Glycine max); [14]): 5
Soybean plant response rating (soybean (Glycine max); [15]): 10
Plant response rating, Soybean (soybean (Glycine max); [16]): 10
Soybean plant response rating (soybean (Glycine max); [17]): 15
Plant response rating, Waterhemp [11, 14]: 20
Waterhemp plant response rating [11, 15]: 40
Plant response rating, Waterhemp [11, 16]: 55
Waterhemp plant response rating [11, 17]: 60
Plant response rating, Wheat [12, 14]: 0
Wheat plant response rating [12, 15]: 5
Plant response rating, Wheat [12, 16]: 40
Wheat plant response rating [12, 17]: 10
Plant response rating, Kochia (kochia (Kochia scoparia); [14]): 90
Kochia plant response rating (kochia (Kochia scoparia); [15]): 90
Plant response rating, Kochia (kochia (Kochia scoparia); [16]): 100
Kochia plant response rating (kochia (Kochia scoparia); [17]): 95
Plant response rating, Oat, Wild [13, 14]: 0
Oat, Wild plant response rating [13, 15]: 5
Plant response rating, Oat, Wild [13, 16]: 35
Oat, Wild plant response rating [13, 17]: 10

Reference: patent US10597388B2, “Pyridazinone herbicides” (FMC CORPORATION, priority 2014, dated 2020)
